# Source: US4346082A, “Method of employing therapeutic composition comprising ammonium or substituted ammonium compounds for treatment of alcoholism” (The Vinoxen Company, priority 1981, dated 1982)
# Read-outs that look alike come from different tables or passages of the source.
# What was measured:
# humans [1] = experiment: Toxicity in humans, repeated administration of capsules; conditions: up to 20 capsules per day (1 gram/capsule) for 10 days
# mice [2] = experiment: Acute, subacute and chronic toxicity in mice, gastric catheter
# effects of alcohol [3] = experiment: Efficacy in altering the effects of alcohol administered to mice; type: in vivo; conditions: for comparative effect on mice of ammonium thiosulfate and ammonium sulfate: series of tests in mice
# Method: Tests of some of the compounds encompassed within the scope of this invention were carried out with mice to determine efficacy in altering the effects of alcohol administered to the test animals.
# [4] = pH of 5 weight percent aqueous salt solution; type: physicochemical; conditions: 5 g salt per 100 g aqueous solution, 25° C
# Method: For each salt, 5.000 grams of reagent grade material was weighed and added to 95.00 grams of water. […] The instrument was allowed to equilibrate for three minutes between each sample, and the electrodes were rinsed with carbonate-free deionized water. Manual temperature control was set at 25° C.
# rats [5] = experiment: Acute, subacute and chronic toxicity in rats, gastric catheter
# [6] = tested on: effect of alcohol on a human brain; conditions: publication DOT HS-801 208 (1974); cited from earlier work
# [7] = tested on: manifestations of the effects of alcohol; conditions: 1 or 2 capsules of 1 gram after 1 or 2 alcoholic drinks; in some cases
# From the text: Throughout the specification and claims reference to an alcoholic drink means reference to an aqueous mixture of ethanol containing about 15-25 grams of ethanol per drink.
# humans [8] = conditions: in vivo
# mice [9] = conditions: mouse, in vivo
# rats [10] = conditions: rat, in vivo
# effects of alcohol [11] = experiment: Efficacy in altering the effects of alcohol in humans; conditions: compared with ammonium sulfate
# [12] = tested on: ethanol-induced neurological deficit
# Method: (§1) Neurological deficit was recorded if the animal was unable to remain on the rod for at least 10 seconds.
# [13] = tested on: ethanol-induced neurological deficit; conditions: for Fall from rod in 10 sec. (individual mouse): 0.6 ml of 10% solution oral, 30 min before 0.5 ml 30% ethanol oral; for No. Protected/No. Treated: 0.6 ml/mouse of 10% solution oral, ethanol 0.5 ml/mouse; for effectiveness as inhibitors of ethanol-induced neurological deficit: at the dose used (0.6 ml/mouse of 10% solution)
# Method: as §1
# Each composition was prepared freshly as a 10% aqueous solution from the crystalline preparation. A dose of 0.6 ml/mouse was administered orally to 10 mice for each compound. […] A group of 10 untreated mice were used as controls.
# [14] = tested on: ethanol-induced neurological deficit; conditions: for Fraction Protected / Percent (protected): 0.6 ml/mouse
# Method: They were deprived of food, but not water, for a period of five hours preceding the test. […] Ten minutes later the animals were tested for neurological deficit or its absence in the usual manner as described in Example 1. A separate group of fasted by non-pretreated mice served as ethanol controls.
# neurological deficit [15] = tested on: neurological deficit
# Method: Ten minutes later the animals were placed, individually, on a rotored, rotating at 6 rpm. […] Absence of neurological deficit was similarly recorded (+) if the animal had sufficient coordination and muscular power to remain on the rotating rod for 10 seconds or more.
# neurological deficit [16] = conditions: i.p., fasted mice; 0.12-0.19 at 95% confidence limit
# Method: Further, and in order to avoid physio-chemical problems that might, albeit remotely, arise if ethanol is administered orally, applicant also determined the intraperitoneal ED50 of ethanol in fasted mice.
# [17] = ethanol 0.50 ml per mouse, ammonium thiosulfate pretreated
# [18] = ethanol 0.63 ml per mouse, ammonium thiosulfate pretreated
# [19] = ethanol 0.75 ml per mouse, ammonium thiosulfate pretreated
# [20] = ethanol 0.87 ml per mouse, ammonium thiosulfate pretreated
# [21] = ethanol 1.00 ml per mouse, ammonium thiosulfate pretreated
# [22] = ethanol 0.05 ml per mouse, non-pretreated
# [23] = ethanol 0.10 ml per mouse, non-pretreated
# [24] = ethanol 0.15 ml per mouse, non-pretreated
# [25] = ethanol 0.20 ml per mouse, non-pretreated
# [26] = ethanol 0.30 ml per mouse, non-pretreated
# [27] = ethanol 0.50 ml per mouse, non-pretreated
molecule,measurement,setting,value
"CC(=O)O [Ammonium acetate, ammonium acetate]",clinical or analytic noxious effects,humans [1],no clinical or analytic noxious effects
same,"acute, subacute and chronic toxicity",mice [2],low toxicity
same,efficacy in altering the effects of alcohol in mice,effects of alcohol [3]; mice,Good results
same,pH of 5 Weight Percent Solution,[4],6.790
same,"acute, subacute and chronic toxicity",rats [5],low toxicity
"Cl.N [Ammonium chloride, ammonium chloride, reference compound]",amethystic effect,[6],does not appear to act as an amethystic agent
same,pH of 5 Weight Percent Solution,[4],4.761
"N.NS(=O)(=O)O [Ammonium sulfamate, ammonium sulfamate]",pH of 5 Weight Percent Solution,[4],5.335
"N.N.O=S(O)(O)=S [Ammonium thiosulfate, ammonium thiosulfate]",additional drinks consumed without typical manifestations of the effects of alcohol,[7],up to 8 additional drinks
same,clinical or analytic noxious effects,humans [8],no clinical or analytic noxious effects
same,"acute, subacute and chronic toxicity",mice [9],low toxicity
same,"acute, subacute and chronic toxicity",rats [10],low toxicity
same,expected effect in altering the effects of alcohol ingestion in humans,effects of alcohol [11],substantially greater
same,comparative effect on mice of ammonium thiosulfate and ammonium sulfate,effects of alcohol [3],approximately equally effective
same,ED50 of 30% ethanol in pretreated mice,"[12]; 30% (v/v) ethanol oral, ammonium thiosulfate pretreated",0.76 ml/mouse
same,oral ED50 of ethanol in ammonium thiosulfate pretreated animals,"[12]; 30% (v/v) ethanol, 95% limits 0.65-0.90 ml",0.76 mL
same,increase in ethanol required to induce neurological deficit following pretreatment,[12]; ammonium thiosulfate pretreated vs non-pretreated mice,nearly five times
same,Fraction Falling From Rod in 10 sec.,[12]; [17],1/10
same,Percent Falling,[12]; [17],10%
same,Fall from rod in 10 sec. (individual mouse),"[12]; ethanol 0.5 ml, 0.6 ml of 10% ammonium thiosulfate solution oral, 30 min before",- and +
same,Fraction Falling From Rod in 10 sec.,[12]; [18],2/10
same,Percent Falling,[12]; [18],20%
same,Fall from rod in 10 sec. (individual mouse),"[12]; ethanol 0.63 ml, 0.6 ml of 10% ammonium thiosulfate solution oral, 30 min before",- and +
same,Fraction Falling From Rod in 10 sec.,[12]; [19],4/10
same,Percent Falling,[12]; [19],40%
same,Fall from rod in 10 sec. (individual mouse),"[12]; ethanol 0.75 ml, 0.6 ml of 10% ammonium thiosulfate solution oral, 30 min before",+ and ° and -
same,Fraction Falling From Rod in 10 sec.,[12]; [20],7/10
same,Percent Falling,[12]; [20],70%
same,Fall from rod in 10 sec. (individual mouse),"[12]; ethanol 0.87 ml, 0.6 ml of 10% ammonium thiosulfate solution oral, 30 min before",+ and -
same,Fraction Falling From Rod in 10 sec.,[12]; [21],10/10
same,Percent Falling,[12]; [21],100%
same,Fall from rod in 10 sec. (individual mouse),"[12]; ethanol 1.00 ml, ammonium thiosulfate solution dose printed as 0.0 ml",+
same,pH of 5 Weight Percent Solution,[4],5.966
same,Fall from rod in 10 sec. (individual mouse),[13],- and +
same,No. Protected/No. Treated,[13],8/10
same,effectiveness as inhibitors of ethanol-induced neurological deficit,[13],highly effective
same,relative potency of ammonium thiosulfate and ammonium sulfate,[13]; single test,essentially equipotent
same,percent of pure ammonium thiosulfate required to protect 50% of the mice,[14]; 0.6 ml/mouse oral as basic dose,3.6 (2.63-4.93%)
same,Fraction Protected,[14]; 1.25% ammonium thiosulfate,0/10
same,Percent (protected),[14]; 1.25% ammonium thiosulfate,0%
same,Fall from rod in 10 sec. (individual mouse),"[14]; 1.25% ammonium thiosulfate, 0.6 ml/mouse oral, 30% ethanol 0.5 ml/mouse",+
same,Fraction Protected,[14]; 2.5% ammonium thiosulfate,3/10
same,Percent (protected),[14]; 2.5% ammonium thiosulfate,30%
same,Fraction Protected,[14]; 5.0% ammonium thiosulfate,7/10
same,Percent (protected),[14]; 5.0% ammonium thiosulfate,70%
same,Fraction Protected,[14]; 7.5% ammonium thiosulfate,8/10
same,Percent (protected),[14]; 7.5% ammonium thiosulfate,80%
same,Fraction Protected,[14]; 10.0% ammonium thiosulfate,8/10
same,Percent (protected),[14]; 10.0% ammonium thiosulfate,80%
"CCO [Ethanol, ethanol]",ED50 (95% Limit),"neurological deficit [15]; 30% (v/v) ethanol oral, non-pretreated, 95% limit 0.13-0.22",0.17 mL
same,"oral ED50 of 30% ethanol for neurological deficit, non-pretreated mice","neurological deficit [15]; 30% (v/v) ethanol, 95% fiducial limits 0.13 to 0.22 ml/mouse",0.17 ml/mouse
same,Fall from rod in 10 sec. (individual mouse),"neurological deficit [15]; ethanol 0.05 ml oral, non-pretreated",-
same,Fraction Falling From Rod in 10 sec.,neurological deficit [15]; [22],0/5
same,Percent Falling,neurological deficit [15]; [22],0%
same,Fraction Falling From Rod in 10 sec.,neurological deficit [15]; [23],2/10
same,Percent Falling,neurological deficit [15]; [23],20%
same,Fraction Falling From Rod in 10 sec.,neurological deficit [15]; [24],4/10
same,Percent Falling,neurological deficit [15]; [24],40%
same,Fraction Falling From Rod in 10 sec.,neurological deficit [15]; [25],7/10
same,Percent Falling,neurological deficit [15]; [25],70%
same,Fraction Falling From Rod in 10 sec.,neurological deficit [15]; [26],4/5
same,Percent Falling,neurological deficit [15]; [26],80%
same,Fall from rod in 10 sec. (individual mouse),"neurological deficit [15]; ethanol 0.5 ml oral, non-pretreated",+
same,Fraction Falling From Rod in 10 sec.,neurological deficit [15]; [27],10/10
same,Percent Falling,neurological deficit [15]; [27],100%
same,intraperitoneal ED50 of 30% ethanol,neurological deficit [16],0.15 ml/mouse
N[C@@H](Cc1ccc(O)c(O)c1)C(=O)O [L-dopa],amethystic effect,[6],most effective amethystic agent
ammonium sulfate,clinical or analytic noxious effects,humans [1],no clinical or analytic noxious effects
same,comparative effect on mice of ammonium thiosulfate and ammonium sulfate,effects of alcohol [3],approximately equally effective
same,pH of 5 Weight Percent Solution,[4],5.263
same,Fall from rod in 10 sec. (individual mouse),[13],- and +
same,No. Protected/No. Treated,[13],7/10
same,effectiveness as inhibitors of ethanol-induced neurological deficit,[13],highly effective
